Several values for one entry are separate records, joined by “and”; a condition that tells them apart may be missing. Identical values can stand only once. Results filed as inconclusive are left out.
Tested on: Lewis lung carcinoma i.m., BDF1 mice, T/C %
Assay: NCI In Vivo Anticancer Drug Screen. Data for tumor model Lewis Lung Carcinoma (intramuscular) in B6D2F1 (BDF1) mice
Procedure, shortened: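 Tumour-bearing mice were dosed with compound, and either their survival or their tumour size was measured. Results were expressed relative to vehicle-treated controls as T/C.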

[1] = endpoint: mean tumor weight (est.), dose: 0.25 mg/kg/injection, schedule: Q01DX011 (ip), vehicle: saline, higher = larger tumour
[2] = endpoint: mean tumor weight (est.), dose: 0.5 mg/kg/injection, schedule: Q01DX011 (ip), vehicle: saline, higher = larger tumour
[3] = endpoint: median survival time, dose: 0.25 mg/kg/injection, schedule: Q01DX011 (ip), vehicle: saline, higher = longer survival
[4] = endpoint: median survival time, dose: 0.5 mg/kg/injection, schedule: Q01DX011 (ip), vehicle: saline, higher = longer survival

Structure (SMILES): COc1cc([C@@H]2c3cc4c(cc3C[C@H]3COC(=O)[C@@H]32)OCO4)cc(OC)c1OC
- T/C (endpoint: mean tumor weight (est.), dose: 5.0 mg/kg/injection, schedule: Q01DX011 (ip), vehicle: saline, higher = larger tumour): 68 % of control
- T/C (endpoint: mean tumor weight (est.), dose: 10.0 mg/kg/injection, schedule: Q01DX011 (ip), vehicle: saline, higher = larger tumour): 54 % of control
- T/C (endpoint: mean tumor weight, dose: 6.25 mg/kg/injection, schedule: Q01DX011 (ip), vehicle: saline, higher = larger tumour): 100 % of control
- T/C (endpoint: mean tumor weight, dose: 12.5 mg/kg/injection, schedule: Q01DX011 (ip), vehicle: saline, higher = larger tumour): 70 % of control
- T/C (endpoint: median survival time, dose: 6.25 mg/kg/injection, schedule: Q01DX011 (ip), vehicle: saline, higher = longer survival): 100 % of control
- T/C (endpoint: median survival time, dose: 12.5 mg/kg/injection, schedule: Q01DX011 (ip), vehicle: saline, higher = longer survival): 87 % of control

Structure (SMILES): C1CN1c1nc(N2CC2)nc(N2CC2)n1
- T/C (endpoint: mean tumor weight (est.), dose: 0.06 mg/kg/injection, schedule: Q01DX011 (ip), vehicle: saline, higher = larger tumour): 78 % of control
- T/C (endpoint: mean tumor weight (est.), dose: 0.12 mg/kg/injection, schedule: Q01DX011 (ip), vehicle: saline, higher = larger tumour): 67 % of control
- T/C [1]: 37 % of control
- T/C [2]: 37 % of control
- T/C (endpoint: mean tumor weight, dose: 0.12 mg/kg/injection, schedule: Q01DX011 (ip), vehicle: saline, higher = larger tumour): 73 % of control
- T/C (endpoint: mean tumor weight, dose: 0.25 mg/kg/injection, schedule: Q01DX011 (ip), vehicle: saline, higher = larger tumour): 73 % of control
- T/C (endpoint: median survival time, dose: 0.06 mg/kg/injection, schedule: Q01DX011 (ip), vehicle: saline, higher = longer survival): 97 % of control
- T/C (endpoint: median survival time, dose: 0.1 mg/kg/injection, schedule: Q01DX011 (ip), vehicle: saline, higher = longer survival): 116 % of control
- T/C (endpoint: median survival time, dose: 0.12 mg/kg/injection, schedule: Q01DX011 (ip), vehicle: saline, higher = longer survival): 100 % of control and 106 % of control
- T/C (endpoint: median survival time, dose: 0.2 mg/kg/injection, schedule: Q01DX011 (ip), vehicle: saline, higher = longer survival): 106 % of control
- T/C [3]: 110 % of control
- T/C (endpoint: median survival time, dose: 0.4 mg/kg/injection, schedule: Q01DX011 (ip), vehicle: saline, higher = longer survival): 89 % of control
- T/C [4]: 122 % of control

Structure (SMILES): O=C[C@@H](CO)O[C@H](C=O)n1cnc2c(=O)[nH]cnc21
- T/C (endpoint: mean tumor weight, dose: 37.5 mg/kg/injection, schedule: Q01DX011 (ip), vehicle: saline, higher = larger tumour): 53 % of control
- T/C (endpoint: mean tumor weight, dose: 39.0 mg/kg/injection, schedule: Q01DX011 (ip), vehicle: saline, higher = larger tumour): 49 % of control
- T/C (endpoint: mean tumor weight, dose: 65.0 mg/kg/injection, schedule: Q01DX011 (ip), vehicle: saline, higher = larger tumour): 74 % of control
- T/C (endpoint: mean tumor weight, dose: 75.0 mg/kg/injection, schedule: Q01DX011 (ip), vehicle: saline, higher = larger tumour): 71 % of control
- T/C (endpoint: mean tumor weight, dose: 108.0 mg/kg/injection, schedule: Q01DX011 (ip), vehicle: saline, higher = larger tumour): 60 % of control
- T/C (endpoint: mean tumor weight, dose: 150.0 mg/kg/injection, schedule: Q01DX011 (ip), vehicle: saline, higher = larger tumour): 46 % of control
- T/C (endpoint: median survival time, dose: 39.0 mg/kg/injection, schedule: Q01DX011 (ip), vehicle: saline, higher = longer survival): 115 % of control
- T/C (endpoint: median survival time, dose: 65.0 mg/kg/injection, schedule: Q01DX011 (ip), vehicle: saline, higher = longer survival): 115 % of control
- T/C (endpoint: median survival time, dose: 75.0 mg/kg/injection, schedule: Q01DX011 (ip), vehicle: saline, higher = longer survival): 113 % of control
- T/C (endpoint: median survival time, dose: 108.0 mg/kg/injection, schedule: Q01DX011 (ip), vehicle: saline, higher = longer survival): 103 % of control

Structure (SMILES): Nc1ncnc2c1ccn2C1OC(CO)C(O)C1O (centres undefined)
- T/C (endpoint: median survival time, dose: 0.1 mg/kg/injection, schedule: Q01DX011 (ip), vehicle: steriod suspending solution, higher = longer survival): 90 % of control
- T/C (endpoint: median survival time, dose: 0.19 mg/kg/injection, schedule: Q01DX011 (ip), vehicle: steriod suspending solution, higher = longer survival): 101 % of control
- T/C (endpoint: median survival time, dose: 0.25 mg/kg/injection, schedule: Q01DX011 (ip), vehicle: carboxymethylcellulose (CMC), higher = longer survival): 106 % of control
- T/C (endpoint: median survival time, dose: 0.38 mg/kg/injection, schedule: Q01DX011 (ip), vehicle: steriod suspending solution, higher = longer survival): 92 % of control
- T/C (endpoint: median survival time, dose: 0.5 mg/kg/injection, schedule: Q01DX009 (ip), vehicle: Klucel (hydroxypropylcellulose) (HPC), higher = longer survival): 98 % of control
- T/C (endpoint: median survival time, dose: 0.5 mg/kg/injection, schedule: Q01DX011 (ip), vehicle: carboxymethylcellulose (CMC), higher = longer survival): 100 % of control
- T/C (endpoint: median survival time, dose: 0.75 mg/kg/injection, schedule: Q01DX011 (ip), vehicle: steriod suspending solution, higher = longer survival): 86 % of control
- T/C (endpoint: median tumor weight (est.), dose: 0.1 mg/kg/injection, schedule: Q01DX011 (ip), vehicle: steriod suspending solution, higher = larger tumour): 70 % of control
- T/C (endpoint: median tumor weight (est.), dose: 0.19 mg/kg/injection, schedule: Q01DX011 (ip), vehicle: steriod suspending solution, higher = larger tumour): 96 % of control
- T/C (endpoint: median tumor weight (est.), dose: 0.38 mg/kg/injection, schedule: Q01DX011 (ip), vehicle: steriod suspending solution, higher = larger tumour): 70 % of control
- T/C (endpoint: median tumor weight (est.), dose: 0.75 mg/kg/injection, schedule: Q01DX011 (ip), vehicle: steriod suspending solution, higher = larger tumour): 84 % of control

Structure (SMILES): CN1C=c2c3c(ccc2=C2C=CC4C=C5OCOC5=CC4=C21)OCO3 (centres undefined)
- T/C (endpoint: mean tumor weight (est.), dose: 7.5 mg/kg/injection, schedule: Q01DX011 (ip), vehicle: saline with Tween-80, higher = larger tumour): 78 % of control
- T/C (endpoint: mean tumor weight (est.), dose: 15.0 mg/kg/injection, schedule: Q01DX011 (ip), vehicle: saline with Tween-80, higher = larger tumour): 51 % of control
- T/C (endpoint: median survival time, dose: 7.5 mg/kg/injection, schedule: Q01DX011 (ip), vehicle: saline with Tween-80, higher = longer survival): 122 % of control
- T/C (endpoint: median survival time, dose: 15.0 mg/kg/injection, schedule: Q01DX011 (ip), vehicle: saline with Tween-80, higher = longer survival): 100 % of control

Structure (SMILES): NC(Cc1c[nH]c2ccc(N(CCCl)CCCl)cc12)C(=O)O (centres undefined)
- T/C (endpoint: mean tumor weight, dose: 0.06 mg/kg/injection, schedule: Q01DX011 (ip), vehicle: other, higher = larger tumour): 90 % of control
- T/C (endpoint: mean tumor weight, dose: 0.12 mg/kg/injection, schedule: Q01DX011 (ip), vehicle: other, higher = larger tumour): 96 % of control
- T/C (endpoint: mean tumor weight, dose: 0.25 mg/kg/injection, schedule: Q01DX011 (ip), vehicle: other, higher = larger tumour): 105 % of control
- T/C (endpoint: mean tumor weight, dose: 0.5 mg/kg/injection, schedule: Q01DX011 (ip), vehicle: other, higher = larger tumour): 97 % of control
- T/C (endpoint: mean tumor weight, dose: 1.0 mg/kg/injection, schedule: Q01DX011 (ip), vehicle: other, higher = larger tumour): 83 % of control
- T/C (endpoint: mean tumor weight, dose: 2.0 mg/kg/injection, schedule: Q01DX011 (ip), vehicle: other, higher = larger tumour): 103 % of control
- T/C (endpoint: median survival time, dose: 0.06 mg/kg/injection, schedule: Q01DX011 (ip), vehicle: other, higher = longer survival): 94 % of control
- T/C (endpoint: median survival time, dose: 0.12 mg/kg/injection, schedule: Q01DX011 (ip), vehicle: other, higher = longer survival): 102 % of control
- T/C (endpoint: median survival time, dose: 0.25 mg/kg/injection, schedule: Q01DX011 (ip), vehicle: acid diluted with saline, higher = longer survival): 89 % of control
- T/C (endpoint: median survival time, dose: 0.25 mg/kg/injection, schedule: Q01DX011 (ip), vehicle: other, higher = longer survival): 86 % of control
- T/C (endpoint: median survival time, dose: 0.5 mg/kg/injection, schedule: Q01DX011 (ip), vehicle: acid diluted with saline, higher = longer survival): 105 % of control
- T/C (endpoint: median survival time, dose: 0.5 mg/kg/injection, schedule: Q01DX011 (ip), vehicle: other, higher = longer survival): 96 % of control
- T/C (endpoint: median survival time, dose: 1.0 mg/kg/injection, schedule: Q01DX011 (ip), vehicle: other, higher = longer survival): 104 % of control

Structure (SMILES): CCCCCCCCCCCC(c1ccccc1)[N+](C)(C)Cc1ccccc1 (centres undefined)
- T/C [1]: 80 % of control
- T/C [2]: 70 % of control
- T/C (endpoint: mean tumor weight (est.), dose: 1.0 mg/kg/injection, schedule: Q01DX011 (ip), vehicle: saline, higher = larger tumour): 61 % of control
- T/C [3]: 87 % of control
- T/C [4]: 91 % of control
- T/C (endpoint: median survival time, dose: 1.0 mg/kg/injection, schedule: Q01DX011 (ip), vehicle: saline, higher = longer survival): 120 % of control

Structure (SMILES): OC(CBr)C(O)C(O)C(O)CBr (centres undefined)
- T/C (endpoint: mean tumor weight (est.), dose: 50.0 mg/kg/injection, schedule: Q01DX011 (ip), vehicle: Klucel (hydroxypropylcellulose) (HPC), higher = larger tumour): 61 % of control
- T/C (endpoint: mean tumor weight (est.), dose: 100.0 mg/kg/injection, schedule: Q01DX011 (ip), vehicle: Klucel (hydroxypropylcellulose) (HPC), higher = larger tumour): 59 % of control
- T/C (endpoint: mean tumor weight (est.), dose: 200.0 mg/kg/injection, schedule: Q01DX011 (ip), vehicle: Klucel (hydroxypropylcellulose) (HPC), higher = larger tumour): 44 % of control
- T/C (endpoint: mean tumor weight, dose: 25.0 mg/kg/injection, schedule: Q01DX011 (ip), vehicle: Klucel (hydroxypropylcellulose) (HPC), higher = larger tumour): 85 % of control
- T/C (endpoint: mean tumor weight, dose: 50.0 mg/kg/injection, schedule: Q01DX011 (ip), vehicle: Klucel (hydroxypropylcellulose) (HPC), higher = larger tumour): 70 % of control
- T/C (endpoint: mean tumor weight, dose: 100.0 mg/kg/injection, schedule: Q01DX011 (ip), vehicle: Klucel (hydroxypropylcellulose) (HPC), higher = larger tumour): 93 % of control
- T/C (endpoint: mean tumor weight, dose: 125.0 mg/kg/injection, schedule: Q01DX011 (ip), vehicle: Klucel (hydroxypropylcellulose) (HPC), higher = larger tumour): 101 % of control
- T/C (endpoint: mean tumor weight, dose: 200.0 mg/kg/injection, schedule: Q01DX011 (ip), vehicle: Klucel (hydroxypropylcellulose) (HPC), higher = larger tumour): 72 % of control
- T/C (endpoint: mean tumor weight, dose: 250.0 mg/kg/injection, schedule: Q01DX011 (ip), vehicle: Klucel (hydroxypropylcellulose) (HPC), higher = larger tumour): 100 % of control
- T/C (endpoint: mean tumor weight, dose: 400.0 mg/kg/injection, schedule: Q01DX011 (ip), vehicle: Klucel (hydroxypropylcellulose) (HPC), higher = larger tumour): 55 % of control
- T/C (endpoint: median survival time, dose: 25.0 mg/kg/injection, schedule: Q01DX011 (ip), vehicle: Klucel (hydroxypropylcellulose) (HPC), higher = longer survival): 94 % of control
- T/C (endpoint: median survival time, dose: 50.0 mg/kg/injection, schedule: Q01DX011 (ip), vehicle: Klucel (hydroxypropylcellulose) (HPC), higher = longer survival): 111 % of control
- T/C (endpoint: median survival time, dose: 125.0 mg/kg/injection, schedule: Q01DX011 (ip), vehicle: Klucel (hydroxypropylcellulose) (HPC), higher = longer survival): 93 % of control
- T/C (endpoint: median survival time, dose: 200.0 mg/kg/injection, schedule: Q01DX011 (ip), vehicle: Klucel (hydroxypropylcellulose) (HPC), higher = longer survival): 97 % of control and 112 % of control
- T/C (endpoint: median survival time, dose: 250.0 mg/kg/injection, schedule: Q01DX011 (ip), vehicle: Klucel (hydroxypropylcellulose) (HPC), higher = longer survival): 100 % of control
- T/C (endpoint: median survival time, dose: 400.0 mg/kg/injection, schedule: Q01DX011 (ip), vehicle: Klucel (hydroxypropylcellulose) (HPC), higher = longer survival): 94 % of control

— PubChem BioAssay AID272 (DTP/NCI, 2004)
